Reference: patent publication US20100152188A1, “Novel Heterocyclic Compounds” (priority 2005, published 2010)

Legend:
[1] = tested on: HDAC; assay: HDAC inhibition; assay type: biochemical; settings: for HDAC Inhibition 1 μM: compound at 1 μM; for HDAC Inhibition 10 μM: compound at 10 μM
[2] = tested on: NCIH460; assay: Anti-cancer screen (MTT), NCIH460; assay type: cell-based; settings: Homo sapiens, NCI-H460, 48 hours with compound, tested at 0.01-100 µM
In short: (§1)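 Cells (5000/well) in DMEM with 10% FBS were seeded 24 h, then exposed to compounds at 0.01, 0.1, 1, 10 and 100 µM in triplicate for 48 h at 37 °C. MTT was added for 3 h, formazan dissolved in DMSO and absorbance read at 570 nm; GI50, TGI and LC50 derived from % growth versus T0.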

[3] = tested on: NCIH460, HCT116, MDAMB-231/U 251; assay: Anti-cancer screen, mean GI50 over the cell lines; assay type: cell-based; settings: in µM
In short: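 HCT116, NCIH460 and U251 cells (5000/well) were seeded for 24 h, then exposed in triplicate to 0.01, 0.1, 1, 10 and 100 µM final compound for 48 h. Viability was read by MTT (3 h, absorbance 570 nm), and percent growth was calculated against untreated controls and a T0 plate read at compound addition.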

[4] = tested on: HCT116; assay: Anti-cancer screen (MTT), HCT116; assay type: cell-based; settings: Homo sapiens, HCT-116, 48 hours with compound, tested at 0.01-100 µM
In short: as §1

[5] = tested on: MDAMB-231/U 251; assay: Anti-cancer screen (MTT), MDAMB-231/U 251; assay type: cell-based; settings: for CC50: 48 h, read-out: MDAMB-231/U 251 LC50; for GI50 / IC (TGI): 48 hours with compound, MTT, tested at 0.01-100 µM
In short: as §1

SMILES	HDAC Inhibition 1 μM [1]	HDAC Inhibition 10 μM [1]	GI50 [2]	IC (TGI) [2]	LC50 [2]	Mean GI50 [3]	GI50 [4]	IC (TGI) [4]	LC50 (concentration giving 50% net cell kill relative to T0) [4]	CC50 [5]	GI50 [5]	IC (TGI) [5]
COC(CNC(=O)c1ccc(CNC(=O)OCc2cccs2)cc1)OC [Example 53, 2-Thienylmethyl (4-{[(2,2-dimethoxyethyl)amino]carbonyl}benzyl)carbamate]	4.3	1.6	0.02 µM	1 µM	> 100 µM	2.4	0.12 µM	6.1 µM	> 100 µM	> 100 µM	7.1 µM	> 100 µM
CCOC(=O)Cc1csc(NC(=O)c2ccc(CNC(=O)OCc3cccs3)cc2)n1 [Example 54, Ethyl{2-[(4-{[(2-thienylmethyloycarbonyl)amino]methyl}benzoyl)amino]-1,3-thiazol-4-yl}acetate]	0.6	8.1	0.05 µM	0.8 µM	91 µM	1.1	3 µM	9.3 µM	97 µM	> 100 µM	0.2 µM	62 µM
Nc1cccc(NC(=O)c2ccc(CNC(=O)OCc3cccs3)cc2)c1 [Example 55, 2-Thienylmethyl(4-{[(3-aminophenyl)amino]carbonyl}benzyl)carbamate]	7.41	26	4 µM	40 µM	> 100 µM	7	18 µM	> 100 µM	> 100 µM	45 µM	0.07 µM	0.6 µM
O=C(NCc1ccc(C(=O)N2CCN(Cc3ccc4c(c3)OCO4)CC2)cc1)OCc1nccs1 [Example 57, 1,3-Thiazol-2-ylmethyl(4-{[4-(1,3-benzodioxol-5-ylmethyl)piperazin-1-yl]carbonyl}benzyl)carbamate]	−1.94	−1	0.4 µM	0.9 µM	> 100 µM	2.6	7 µM	> 100 µM	> 100 µM	> 100 µM	0.4 µM	0.9 µM
O=C(NCc1ccc(C(=O)Nc2nnc(C(F)(F)F)s2)cc1)OCc1nc2ccccc2s1 [Example 58, 1,3-Benzothiazol-2-ylmethyl[4-({[5-(trifluoromethyl)-1,3,4-thiadiazol-2-yl]amino}carbonyl)benzyl]carbamate]	0.4	−11.54	2 µM	7 µM	> 100 µM	7.3	20 µM	> 100 µM	> 100 µM	83 µM	0.04 µM	0.8 µM
O=C(NCc1ccc(C(=O)Nc2nnc(C(F)(F)F)s2)cc1)OCc1cccs1 [Example 59, 2-Thienylmethyl[4-({[5-(trifluoromethyl)-1,3,4-thiadiazol-2-yl]amino}carbonyl)benzyl]carbamate]	14.41	–	53 µM	95 µM	> 100 µM	63.5	> 100 µM	> 100 µM	> 100 µM	> 100 µM	74 µM	> 100 µM
O=C(NCc1ccc(C(=O)N2CCC(N3CCCCC3)CC2)cc1)OCC1COc2ccccc2O1 (centres unmarked) [Example 60, 2,3-Dihydro-1,4-benzodioxin-2-ylmethyl[{4-(piperidinopiperidin-1-yl)carbonyl}benzyl]carbamate]	1.4	–	7 µM	83 µM	> 100 µM	36	65 µM	> 100 µM	> 100 µM	> 100 µM	> 100 µM	> 100 µM
O=C(NCc1ccc(C(=O)Nc2nnc(C3CC3)s2)cc1)OCc1c(F)cc(F)cc1F [Example 63, 2,4,6-Trifluorobenzyl(4-{[(5-cyclopropyl-1,3,4-thiadiazol-2-yl)amino]carbonyl}benzyl)carbamate]	–	0.17	0.05 µM	6 µM	> 100 µM	5.52	16 µM	> 100 µM	> 100 µM	> 100 µM	0.5 µM	5 µM
O=C(NCc1ccc(C(=O)Nc2nnc(C(F)(F)F)s2)cc1)OCc1nccs1 [Example 64, 1,3-Thiazol-2-ylmethyl[4-({[5-(trifluoromethyl)-1,3,4-thiadiazol-2-yl]amino}carbonyl)benzyl]carbamate]	4.95	7.43	> 100 µM	> 100 µM	> 100 µM	>100	> 100 µM	> 100 µM	> 100 µM	> 100 µM	> 100 µM	> 100 µM
O=C(NCc1ccc(C(=O)Nc2nnc(C3CC3)s2)cc1)OCc1nccs1 [Example 65, 1,3-Thiazol-2-ylmethyl(4-{[(5-cyclopropyl-1,3,4-thiadiazol-2-yl)amino]carbonyl}benzyl)carbamate]	11.65	8.84	12 µM	85 µM	> 100 µM	17.67	36 µM	> 100 µM	> 100 µM	> 100 µM	5 µM	45 µM
O=C(NCc1ccc(C(=O)N2CCN(Cc3ccc4c(c3)OCO4)CC2)cc1)OCc1nc2ccccc2s1 [Example 66, 1,3-Benzothiazol-2-ylmethyl(4-{[4-(1,3-benzodioxol-5-ylmethyl)piperazin-1-yl]carbonyl}benzyl)carbamate]	8.57	12.98	1 µM	> 100 µM	> 100 µM	3.93	4.8 µM	> 100 µM	> 100 µM	> 100 µM	6 µM	> 100 µM
O=C(NCc1ccc(C(=O)Nc2nnc(C3CC3)s2)cc1)OCc1nc2ccccc2s1 [Example 67, 1,3-Benzothiazol-2-ylmethyl(4-{[(5-cyclopropyl-1,3,4-thiadiazol-2-yl)amino]carbonyl}benzyl)carbamate]	12.17	11.64	3.5 µM	9.5 µM	> 100 µM	2.93	1.8 µM	67 µM	> 100 µM	> 100 µM	3.5 µM	9 µM
O=C(NCc1ccc(C(=O)N2CCN(c3ncccn3)CC2)cc1)OCc1nccs1 [Example 68, 1,3-thiazol-2-ylmethyl{4-[(4-pyrimidin-2-ylpiperazin-1-yl)carbonyl]benzyl}carbamate]	11.14	5.80	33 µM	> 100 µM	> 100 µM	14.1	9 µM	> 100 µM	> 100 µM	> 100 µM	0.2 µM	21 µM
O=C(Nc1ccc(C(=O)NO)o1)OCc1ccccc1 [Example 75, Benzyl{5-[(hydroxyamino)carbonyl]-2-furyl}carbamate]	–	6.61	100 µM	> 100 µM	> 100 µM	>100	> 100 µM	> 100 µM	> 100 µM	> 100 µM	9 µM	85 µM
O=C(Nc1ccc(C(=O)NO)cc1)OCC1c2ccccc2-c2ccccc21 [Example 76]	50.50	75.80	10 µM	82 µM	> 100 µM	6.8	7.5 µM	65 µM	> 100 µM	90 µM	3 µM	9 µM
CC(=O)N(O)C(=O)Cc1csc(NC(=O)OCc2ccsc2)n1 [Example 77, 3-thienylmethyl(4-{2-[acetyl(hydroxy)amino]-2-oxoethyl}-1,3-thiazol-2-yl)carbamate]	7.7	14.8	53 µM	> 100 µM	> 100 µM	39.7	60 µM	> 100 µM	> 100 µM	> 100 µM	6 µM	65 µM
